According to patent publication US20120283303A1, “USE OF N-AMINOIMIDAZOLE CYTOPROTECTIVE COMPOUNDS FOR TREATING CELL DEATH AND/OR GSK-3 MEDIATED DISEASES” (K.U.LEUVEN RESEARCH AND DEVELOPMENT, priority 2006, published 2012):
In brackets after ≈: the same amount, converted by molar mass. Like-named read-outs stand apart in the source and are kept apart here.

Experiments:
M17-TAU P301L cells = test: TAU cytotoxicity (LDH leakage) in retinoic acid incubated M17-TAU P301L cells; type: cell-based, human; conditions: reduction of LDH activity of retinoic acid incubated M17-TAU P301L cells, 7 days
From the text: An TAU expression plasmid was constructed by sub-cloning the cDNA of human TAU-P301L (encoding for TAU with proline 301 substituted by a leucine residue) into mammalian expression vector pcDNA3.1 resulting in plasmid pcDNA3.1-TAU P301L. Plasmids pcDNA3.1 and pcDNA3.1-TAU P301L were transfected to human neuroblastoma cells ([…]; ATCC No. CRL-2267) and independent clonal lines with the plasmids stably integrated into the genome were selected. […] Expression of the TAU P301L genes in the cell lines was confirmed by Western analysis.
In degenerated or dead cells, lactate dehydrogenase (LDH) is leaked out of the cells into the extracellular environment due to a loss of plasma-membrane integrity. This principle was used to determine cytotoxicity by quantifying the level of leaked LDH into the growth medium.
The detailed method for determining TAU cytotoxicity was as follows: From appropriate precultures of M17-3.1 and M17-TAU(P301L) cells were seeded at 2500 cells/cm2 in Optimem Reduced Serum without phenol red (Gibco, Cat. 31985-047) supplemented with 1% fetal calf serum, 1 mM sodium pyruvate, 1× non-essential amino acids, 500 μg/ml G418 0.5× antibiotic/antimycotic. After 3 hours of incubation at 37° C./5% CO2 1 volume of Optimem Reduced Serum (same as described above; except without fetal calf serum) supplemented with 2.5 μM retinoic acid (RA) was added. The cells were further incubated for 7 days. Subsequently, LDH activity was determined using Promega Cytotox 96 Non-Radioactive cytotoxicity assay, (Cat. G1780) according the supplier's instructions.
The M17-TAU P301L cell line made it possible to assess the ability of the compounds of this invention to counteract TAU cytotoxicity. […] Potency of the relevant compounds was determined by testing them at different concentrations ranging from non-effective (thus at a relatively low concentration) to an effective concentration for their ability to reduce LDH activity of retinoic acid incubated M17-TAU P301L cells.

GSK-3α = target: T1, GSK-3α (Homo sapiens, UniProt P49840); test: Radiometric kinase activity assay; type: biochemical; conditions: same experimental set-up as Table 1
T1 construct: purchased Upstate Biotechnology
Protocol: (§1) GSK-3 were assayed for their ability to phosphorylate the appropriate peptide/protein substrate in the presence of 5 μg/ml NR-818 and 10 μM ATP. Using the direct radiometric approach, kinase activities were determined and expressed as % activity compared to the untreated control (Upstate Biotechnology, Lake Placid, N.Y.). Activities are given as the mean of duplicate determinations relative to control incubations in which the inhibitor was substituted with DMSO. In the following table 1 providing results for NR818, the following abbreviations are used: • CDK, cyclin-dependent kinase; • CK, casein kinase; • eEF-2K, eukaryotic elongation factor-2 kinase; • JNK, c-Jun N-terminal kinase; • MAPK, mitogen-activated protein kinase; • PKC, protein kinase C; and • PI 3-kinase, phosphatidylinositol 3-kinase.
(§2) By using this experimental set-up, the inhibiting activity of NR953 on GSK-3 is also tested.

GSK-3β = target: T2, GSK-3β (Homo sapiens, UniProt P49841); test: Radiometric kinase activity assay; type: biochemical; conditions: same experimental set-up as Table 1
T2 construct: purchased Upstate Biotechnology
Protocol: as §1, §2

[1] = test system: Peripheral blood mononuclear cells (PBMCs); test: PBMC survival (viable cell count, trypan blue exclusion); type: cell-based, human; conditions: NAIM alone, compared to control conditions
Protocol: Peripheral blood mononuclear cells (PBMCs) from healthy donors were isolated by density centrifugation (Lymphoprep; Nycomed Pharma, AS Diagnostics, Oslo, Norway). For the “non-stimulated” conditions (NS) the cells were cultivated at a density of 1,750,000 cells per ml in RPMI-1640 supplemented with 2 mM L-glutamine, 15% FCS and 0.1% NaHCO3 for 3 days. […] At day 0 of the experiment, the NS and activated cells (PHA-stimulated blasts) were washed with PBS and were pelleted by centrifugation. […] The number of viable cells was counted based on the trypan blue exclusion method. The evolution of the number of cells was followed over a period of approximately 2 weeks.

[2] = Homo sapiens, 168 h, read-out: IC50

T1 sequence (P49840 whole entry): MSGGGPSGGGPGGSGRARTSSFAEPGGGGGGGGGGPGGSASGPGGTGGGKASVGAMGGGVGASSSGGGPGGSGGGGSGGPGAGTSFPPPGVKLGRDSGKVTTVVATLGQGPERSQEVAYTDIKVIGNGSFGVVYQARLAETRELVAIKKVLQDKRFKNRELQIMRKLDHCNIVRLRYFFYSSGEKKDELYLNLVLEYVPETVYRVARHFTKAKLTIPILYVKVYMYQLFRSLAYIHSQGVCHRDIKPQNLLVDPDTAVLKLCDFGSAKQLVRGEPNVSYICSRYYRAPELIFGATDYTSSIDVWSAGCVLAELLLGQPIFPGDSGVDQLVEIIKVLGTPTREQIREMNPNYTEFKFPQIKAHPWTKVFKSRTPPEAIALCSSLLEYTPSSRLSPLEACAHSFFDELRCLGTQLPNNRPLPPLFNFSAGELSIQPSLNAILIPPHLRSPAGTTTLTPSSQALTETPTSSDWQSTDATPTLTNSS
T2 sequence (P49841 whole entry): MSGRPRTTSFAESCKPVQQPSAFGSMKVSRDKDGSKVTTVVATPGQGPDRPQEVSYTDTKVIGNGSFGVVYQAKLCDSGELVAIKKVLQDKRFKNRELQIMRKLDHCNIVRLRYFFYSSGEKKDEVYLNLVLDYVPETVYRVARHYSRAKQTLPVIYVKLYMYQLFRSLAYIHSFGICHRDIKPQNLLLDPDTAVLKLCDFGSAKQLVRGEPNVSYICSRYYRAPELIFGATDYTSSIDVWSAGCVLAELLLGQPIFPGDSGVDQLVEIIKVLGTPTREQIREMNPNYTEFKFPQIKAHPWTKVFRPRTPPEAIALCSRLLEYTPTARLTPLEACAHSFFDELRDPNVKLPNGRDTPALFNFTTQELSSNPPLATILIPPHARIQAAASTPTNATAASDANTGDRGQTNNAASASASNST

SMILES | IC50 (M17-TAU P301L cells; [2]) [µg/mL] | also measured
Cc1ncn(Nc2cccc(Cl)c2)c1-c1cccc(Br)c1 [HER/LI412 = NR779GLUCOSE] |  | IC50 (M17-TAU P301L cells): 0.216 µg/mL (≈ 0.596 µM)
Cc1[nH]c(=S)n(Nc2ccccc2Cl)c1-c1ccccc1 [HER/NR723] | 0.024 (≈ 0.076 µM) | 
Cc1[nH]c(=S)n(Nc2cccc(Cl)c2)c1-c1ccccc1 [HER/NR724] | 0.34 (≈ 1.08 µM) | 
Cc1[nH]c(=S)n(Nc2ccc(Cl)cc2)c1-c1ccccc1 [HER/NR725] | 0.176 (≈ 0.557 µM) | 
Cc1ncn(Nc2cccc(Cl)c2)c1-c1ccccc1 [HER/NR746] | 0.081 (≈ 0.285 µM) | 
CSc1nc(C)c(-c2ccccc2)n1Nc1cccc(Cl)c1 [HER/NR747] | 0.256 (≈ 0.776 µM) | 
Cc1cccc(Nn2c(SCc3ccccc3)nc(C)c2-c2ccccc2)c1 [HER/NR748] | 0.325 (≈ 0.843 µM) | 
Cc1[nH]c(=S)n(Nc2cccc(Cl)c2)c1-c1cccc(Br)c1 [HER/NR759] | 0.174 (≈ 0.441 µM) | 
Cc1[nH]c(=S)n(Nc2cccc(Cl)c2)c1-c1ccc(Br)cc1 [HER/NR760] | 0.12 (≈ 0.304 µM) | 
Cc1[nH]c(=S)n(Nc2cccc(Cl)c2)c1-c1cccc(Cl)c1 [HER/NR761] | 0.11 (≈ 0.314 µM) | 
Cc1[nH]c(=S)n(Nc2cccc(Cl)c2)c1-c1ccc(Cl)cc1 [HER/NR762] | 0.061 (≈ 0.174 µM) | 
COc1ccc(-c2c(C)[nH]c(=S)n2Nc2cccc(Cl)c2)cc1 [HER/NR763] | 0.456 (≈ 1.32 µM) | 
Cc1[nH]c(=S)n(Nc2cccc(Cl)c2)c1-c1ccc(Cl)cc1Cl [HER/NR766] | 0.192 (≈ 0.499 µM) | 
Cc1ccc(Nn2c(-c3ccccc3)c(C)[nH]c2=S)cc1C [HER/NR767] | 0.146 (≈ 0.472 µM) | 
Cc1[nH]c(=S)n(Nc2cccc(Br)c2)c1-c1ccccc1 [HER/NR768] | 0.44 (≈ 1.22 µM) | 
Cc1[nH]c(=S)n(Nc2cc(Cl)ccc2Cl)c1-c1ccccc1 [HER/NR769] | 0.434 (≈ 1.24 µM) | 
Cc1[nH]c(=S)n(Nc2cccc(F)c2)c1-c1ccccc1 [HER/NR770] | 1.46 (≈ 4.88 µM) | 
Cc1ccc(Nn2c(-c3ccccc3)c(C)[nH]c2=S)cc1Cl [HER/NR771] | 0.293 (≈ 0.888 µM) | 
Cc1[nH]c(=S)n(Nc2ccccc2)c1-c1ccccc1 [HER/NR772] | 0.568 (≈ 2.02 µM) | 
Cc1[nH]c(=S)n(Nc2ccc(F)cc2)c1-c1ccccc1 [HER/NR773] | 0.426 (≈ 1.42 µM) | 
Cc1[nH]c(=S)n(Nc2cccc([N+](=O)[O-])c2)c1-c1ccccc1 [HER/NR774] | 2.13 (≈ 6.53 µM) | 
Cc1cccc(Nn2c(-c3ccccc3)c(C)[nH]c2=S)c1 [HER/NR775] | 0.321 (≈ 1.09 µM) | 
Cc1ncn(Nc2ccccc2)c1-c1ccccc1 [HER/NR776] | 0.455 (≈ 1.82 µM) | 
Cc1ncn(Nc2cccc(Cl)c2)c1-c1cccc(Cl)c1 [HER/NR777] | 0.107 (≈ 0.336 µM) | 
Cc1ncn(Nc2cccc(Cl)c2)c1-c1cccc(Br)c1 [HER/NR779] |  | IC50 (M17-TAU P301L cells): 0.022 µg/mL (≈ 0.0607 µM)
Cc1ncn(Nc2ccc(F)cc2)c1-c1ccccc1 [HER/NR786] | 0.191 (≈ 0.715 µM) | 
Cc1cccc(Nn2c(-c3ccccc3)c(C(C)C)[nH]c2=S)c1 [HER/NR787] | 0.4 (≈ 1.24 µM) | 
CCc1[nH]c(=S)n(Nc2cccc(C)c2)c1-c1ccccc1 [HER/NR788] | 0.341 (≈ 1.1 µM) | 

SMILES | IC50 (M17-TAU P301L cells; [2]) [µg/mL] | also measured
CCc1[nH]c(=S)n(Nc2cccc(Cl)c2)c1-c1ccccc1 [HER/NR789] | 0.184 (≈ 0.558 µM) | 
Cc1cccc(Nn2cnc(C)c2-c2ccccc2)c1 [HER/NR790] | 0.059 (≈ 0.224 µM) | 
CCc1ncn(Nc2cccc(C)c2)c1-c1ccccc1 [HER/NR791] | 0.046 (≈ 0.166 µM) | 
Cc1cc(C)cc(Nn2c(-c3ccccc3)c(C)[nH]c2=S)c1 [HER/NR798] | 0.496 (≈ 1.6 µM) | 
COc1cccc(Nn2c(-c3ccccc3)c(C)[nH]c2=S)c1 [HER/NR801] | 1.35 (≈ 4.34 µM) | 
COc1cccc(Nn2cnc(C)c2-c2ccccc2)c1 [HER/NR802] | 1.34 (≈ 4.79 µM) | 
Cc1[nH]c(=S)n(Nc2cccc(Cl)c2)c1-c1cccc(C#N)c1 [HER/NR803] | 0.086 (≈ 0.252 µM) | 
Cc1cccc(Nn2c(-c3cccc(C#N)c3)c(C)[nH]c2=S)c1 [HER/NR804] | 0.154 (≈ 0.481 µM) | 
Cc1ncn(Nc2cccc(Cl)c2)c1-c1cccc(C#N)c1 [HER/NR805] | 0.09 (≈ 0.291 µM) | 
Cc1cccc(Nn2cnc(C)c2-c2cccc(C#N)c2)c1 [HER/NR806] | 0.141 (≈ 0.489 µM) | 
Cc1cc(C)cc(Nn2cnc(C)c2-c2ccccc2)c1 [HER/NR808] | 0.023 (≈ 0.0829 µM) | 
Cc1cccc(Nn2cnc(C)c2-c2cccc(C(N)=O)c2)c1 [HER/NR809] | 0.33 (≈ 1.08 µM) | 
Cc1[nH]c(=S)n(Nc2cccc(Cl)c2)c1-c1cccc(C(=O)O)c1 [HER/NR810] | 1 (≈ 2.79 µM) | 
Cc1cccc(Nn2c(-c3cccc(C(=O)O)c3)c(C)[nH]c2=S)c1 [HER/NR811] | 1.9 (≈ 5.6 µM) | 
COC(=O)c1cccc(-c2c(C)[nH]c(=S)n2Nc2cccc(Cl)c2)c1 [HER/NR812] | 0.328 (≈ 0.877 µM) | 
Cc1[nH]c(=S)n(Nc2cccc(Cl)c2)c1-c1cccc(C(N)=O)c1 [HER/NR813] | 0.18 (≈ 0.502 µM) | 
COC(=O)c1cccc(-c2c(C)ncn2Nc2cccc(Cl)c2)c1 [HER/NR814] | 0.172 (≈ 0.503 µM) | 
Cc1ncn(Nc2cccc(Cl)c2)c1-c1cccc(C(=O)O)c1 [HER/NR815] | 0.805 (≈ 2.46 µM) | 
CCc1ccc(Nn2c(-c3ccccc3)c(C)[nH]c2=S)cc1 [HER/NR861] | 0.106 (≈ 0.343 µM) | 
CSc1ccc(Nn2c(-c3ccccc3)c(C)[nH]c2=S)cc1 [HER/NR862] | 0.027 (≈ 0.0824 µM) | 
Cc1c(-c2ccccc2)n(N(C)c2ccccc2)c(=S)n1C [HER/NR863] | 3.85 (≈ 12.4 µM) | 
Cc1ccc(Nn2cnc(C)c2-c2ccccc2)cc1Cl [HER/NR864] | 0.057 (≈ 0.191 µM) | 
Cc1ncn(Nc2cccc(Cl)c2)c1-c1ccc(Br)cc1 [HER/NR865] | 0.071 (≈ 0.196 µM) | 
Cc1[nH]c(=S)n(N(C)c2ccccc2)c1-c1ccccc1 [HER/NR866] | 0.195 (≈ 0.66 µM) | 
Cc1[nH]c(=S)n(Nc2cccc3ccccc23)c1-c1cccc(Br)c1 [HER/NR914] | 0.045 (≈ 0.11 µM) | 
Cc1[nH]c(=S)n(Nc2cccc3ccccc23)c1-c1cccc(Cl)c1 [HER/NR915] | 0.037 (≈ 0.101 µM) | 
Cc1nc(SC(O)C(O)C(O)C(O)C(O)CO)n(Nc2cccc3ccccc23)c1-c1ccccc1 (stereo not shown) [HER/NR953] | 0.052 (≈ 0.102 µM) | IC50 on GSK-3α (GSK-3α): low micro-molar concentrations; IC50 on GSK-3β (GSK-3β): low micro-molar concentrations; PBMC cell viability, NAIM as such [1]: did not affect the cell viability
